Data on 76 compounds can be found in PubChem BioAssay AID608 (Sanford-Burnham Center for Chemical Genomics, 2007).

Activity calls are given as the source filed them. No rule for the calls is given here.

In this experiment the target is Peptidyl-prolyl cis-trans isomerase FKBP1A (Homo sapiens) (UniProt P62942). Briefly: FKBP12 binders, biophysical, NMR detection (AID 608). As to conditions: NMR binding, purified FKBP12.
Sequence of Peptidyl-prolyl cis-trans isomerase FKBP1A (Homo sapiens) (P62942 whole entry, looked up): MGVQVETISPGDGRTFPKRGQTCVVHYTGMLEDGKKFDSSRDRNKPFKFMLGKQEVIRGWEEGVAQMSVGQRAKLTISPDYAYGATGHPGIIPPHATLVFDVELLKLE
As for `O=C1NC(=S)N/C1=C\c1ccccc1`, the Kd (usually the constant that tells how readily two partners part at equilibrium) was > 4 mM (inactive).
Turning to `CC1=C(C(=O)Nc2ccccc2)SCCO1`, the Kd is > 4 mM (inactive).
As for `O=C(/C=C/c1ccc(O)cc1)c1ccc(O)cc1O`, the figure is > 4 mM (inactive); as for `CC(=O)OCC[C@H](C)CCC=C(C)C`, > 4 mM (inactive); as for `O=C(O)C(O)C(O)C(O)C(O)C(=O)O` (stereo unspecified), > 4 mM (inactive).
On to `O=[N+]([O-])c1ccc2c(c1)N([O-])C1(CCCCC1)[N+]2=O`, for which the Kd was > 4 mM (inactive).
As for `CCOc1ccc(N2C(=O)CCC2=O)cc1`, the figure is > 4 mM (inactive); as for `Cc1nc2ccccc2c(=O)n1-c1cccc(O)c1`, > 4 mM (inactive); as for `O=C(CN1C(=O)CCC1=O)c1ccccc1`, > 4 mM (inactive).
As for `CSc1ccccc1NC(=O)c1cccnc1`, the figure is > 4 mM (inactive); as for `Cn1cnc2c(cnn2-c2ccccc2)c1=O`, > 4 mM (inactive); as for `O=C(O)c1cnn2ccccc12`, > 4 mM (inactive).
Regarding `O=C(c1ccco1)N1CCNCC1`, the Kd is > 4 mM (inactive).
With `CNc1nc(N)c(C(=O)C(C)(C)C)s1`, the Kd is > 4 mM (inactive).
As for `CC1(C)C(=O)[C@@H]2O[C@@H]2[C@@]2(C)C1C[C@@H](O)[C@]1(C)C2CC[C@@]2(C)[C@H](c3ccoc3)OC(=O)C3OC321` (stereo partly specified), the figure is > 4 mM (inactive).
Take `O=C1c2ccncc2C(=O)N1CO`: the Kd was > 4 mM (inactive).
As for `NNc1ncnc2sccc12`, the Kd is > 4 mM (inactive).
Regarding `NC(=O)CSc1nc2ncnc(N)c2[nH]1`, the Kd was > 4 mM (inactive).
For `O=C(NC1=NCCS1)c1csc2ccccc12`, the Kd is > 4 mM (inactive).
As for `CC(=O)C1=C(O)C(=O)NC1c1ccccc1` (stereo unspecified), the figure is > 4 mM (inactive); as for `O=C(Nc1nncs1)c1c(F)c(F)c(F)c(F)c1F`, > 4 mM (inactive).
For `COc1ccc2c(c1)c1n[nH]c(=S)nc1n2C`, the Kd was > 4 mM (inactive).
Take `Cn1c(=O)n(-c2cccc(Cl)c2)c(=O)n1C`: the Kd is > 4 mM (inactive).
As for `CC(=O)Oc1cccc2ccc(=O)[nH]c12`, the figure is > 4 mM (inactive); as for `Cc1cc2nc3c(=O)[nH]c(=O)nc-3n(CC(O)C(O)C(O)CO)c2cc1C` (stereo unspecified), > 4 mM (inactive).
On to `CSc1nnc2c(n1)OC(C)=Nc1ccccc1-2`, for which the Kd was > 4 mM (inactive).
As for `O=C1NC(=O)C(=Cc2ccccc2)C(=O)N1`, the figure is > 4 mM (inactive); as for `NC(=O)c1ccc(N2C(=O)C=CC2=O)cc1Cl`, > 4 mM (inactive); as for `Cc1cc(O)cc(O)c1C(=O)O`, > 4 mM (inactive).
As for `NCc1ccc(CN2CCOCC2)cc1`, the figure is > 4 mM (inactive); as for `CS(=O)(=O)N1CCN(C(=O)c2ccccc2)CC1`, > 4 mM (inactive).
As for `Cc1oc(-c2ccccc2)cc1CO`, the figure is > 4 mM (inactive); as for `O=C(O)C1CSC(c2ccco2)N1` (stereo unspecified), > 4 mM (inactive).
As for `CC1(C)O[C@H]2[C@H](O)C[C@](O)(C(N)=O)C[C@H]2O1`, the Kd is > 4 mM (inactive).
`OCc1sccc1-n1cccc1`: the Kd is > 4 mM (inactive).
In the case of `Cc1ccc2nc(NC(=O)CN3CCOCC3)sc2c1`, the Kd was > 4 mM (inactive).
The result for `Nc1cccc(S(=O)(=O)N2CCCC2)c1` reads > 4 mM (inactive); that for `O=C(Nc1ccc(OCC(=O)N2CCOCC2)cc1)c1ccccc1F`, “inactive”.
On to `CCOC(=O)c1c(C)nc2cc(C)ccn12`, for which the Kd was > 4 mM (inactive).
With `NC(=O)c1c[nH]c2ccccc12`, the Kd was > 4 mM (inactive).
As for `O=C(O)c1cc2ccccc2cn1`, the figure is > 4 mM (inactive); as for `CN1C(=O)c2ccc(C(=O)NC3CCCCC3)cc2C1=O`, > 4 mM (inactive); as for `CC(=O)Oc1c(C)c(C)c2c(c1C)CCC(C)(CCCC(C)CCCC(C)CCCC(C)C)O2` (stereo unspecified), > 4 mM (inactive).
As for `O=C(/C=C(\O)c1ccccc1)c1ccccc1O`, the figure is > 4 mM (inactive); as for `O=C(/C(=N\O)n1cncn1)c1ccccc1Cl`, > 4 mM (inactive).
As for `CC1=C(C(N)=O)C(c2ccco2)C(C(N)=O)=C(C)N1`, the figure is > 4 mM (inactive); as for `Oc1cc(O)c2c(c1)O[C@H](c1ccc(O)c(O)c1)[C@@H](O)C2`, > 4 mM (inactive).
In the case of `CCOc1ccc(C(=O)c2ccc(OC)c(O)c2O)cc1`, the Kd is > 4 mM (inactive).
As to `COC(=O)c1cc(C)on1`, the Kd was > 4 mM (inactive).
Take `Cc1noc(C)c1C(=O)N1CCc2ccccc2C1`: the Kd is > 4 mM (inactive).
The result for `COC(=O)c1ccc2nsnc2c1` reads > 4 mM (inactive); that for `Cc1ccccc1C(=O)Nn1cnnc1`, > 4 mM (inactive).
As for `Cc1cc(O)c2c(c1O)C(=O)c1c(O)cc(C)c(O)c1C2=O`, the figure is > 4 mM (inactive); as for `CC1(O)CC2C=CC1C2` (stereo unspecified), > 4 mM (inactive).
On to `O=C(c1ccccc1F)N1CCN(c2ccccc2)CC1`, for which the Kd is > 4 mM (inactive).
Regarding `CC(=O)NC(C)(C)C1CC=C(C)/C(=N\O)C1` (stereo unspecified), the Kd was > 4 mM (inactive).
Take `Cc1c(N=CN2CCOCC2)c(=O)n(C)c(=O)n1C`: the Kd is > 4 mM (inactive).
Turning to `O=C(CSc1ccc(C(F)(F)F)cc1[N+](=O)[O-])N1CCOCC1`, the Kd is 0.448 mM.
As for `Cc1nc(-c2cnccn2)sc1C(=O)O`, the figure is > 4 mM (inactive); as for `Cn1c(CSc2nc3ccccc3s2)n[nH]c1=S`, > 4 mM (inactive).
The result for `O=C(Nc1cccnc1)N1CCOCC1` reads > 4 mM (inactive); that for `O=C(O)c1ccc2ncccc2c1`, > 4 mM (inactive).
For `CC(=O)c1cc2c(cc1O)OC(C)(C)C=C2`, the Kd is > 4 mM (inactive).
Consider `C=C1CCC2[C@](C)(CO)[C@H](O)CC[C@@]2(C)[C@@H]1C/C=C1/C(=O)OC[C@H]1O` (stereo partly specified), for which the Kd was > 4 mM (inactive).
The result for `CNC(=O)C(=O)Nc1c(C)cccc1C` reads > 4 mM (inactive); that for `CC(C)CCCC(C)[C@H]1CCC2C3CC[C@@H]4C[C@H](O)CC[C@]4(C)C3CC[C@@]21C` (stereo partly specified), > 4 mM (inactive); that for `CN(C(=O)c1cc2cccnc2n(C)c1=O)c1ccccc1`, > 4 mM (inactive).
Take `Cn1c(SCC(N)=O)nc2ccccc2c1=O`: the Kd is > 4 mM (inactive).
As for `CC(=O)c1cc(C(N)=O)c(=S)[nH]c1C`, the figure is > 4 mM (inactive); as for `Clc1ccc(-c2noc(CN3CCCC3)n2)cc1`, > 4 mM (inactive); as for `CN1C(=O)C(Cc2c[nH]c3ccccc23)C(=O)N(C)C1=O`, > 4 mM (inactive).
As for `CC(=O)Nc1cccc(NC(=O)c2cccnc2)c1`, the figure is > 4 mM (inactive); as for `COc1cc(C(=S)N2CCOCC2)ccc1O`, > 4 mM (inactive).
With `Cc1cc(S(=O)(=O)N2CCOCC2)ccc1F`, the Kd is > 4 mM (inactive).
In the case of `O=C(O)CN(CCCc1ccccc1)CC(=O)O`, the Kd was > 4 mM (inactive).
Turning to `NCc1ccc2sccc2c1`, the Kd was > 4 mM (inactive).
